# Assays:
# nfkbiaa = assay: qPCR nfkbiaa expression in zebrafish larvae; format: in vivo, zebrafish (Danio rerio); conditions: for nfkbiaa expression: Example 2, 6 h treatment; for nfkbiaa expression, short-term treatment / nfkbiaa expression, long-term treatment: 5 dpf, beclomethasone 10 μM, Rg1 50 μM or combination; for nfkbiaa expression, short-term treatment: 6 h; for nfkbiaa expression, long-term treatment: 5 days
# Method: […] Groups of 15 larvae were collected in TRIzol reagent (ThermoFisher) and total RNA was isolated using miRNeasy mini kit (Qiagen, Hilden, Germany). For experiments in HeLa cells, cells were seeded in 6 well plates and after treatment, the cells were removed from the wells using TRIzol reagent and mRNA was isolated using miRNeasy mini kit (Qiagen) according to the manufacturer's instructions. The RNA samples were DNAse-treated utilizing the DNA-free™ DNA Removal Kit (ThermoFisher Scientific). The cDNA synthesis was performed using the iScript cDNA synthesis kit (Bio-Rad Laboratories, Hercules, CA, USA) using 1 μg of RNA per sample. For qPCR, 10 μM of forward primer and 10 μM of reverse primer, 12.5 μl of IQ SYBR Green Supermix (Bio-Rad Laboratories), and 2 μl of cDNA were added to the qPCR reaction mixture. […] The qPCR reactions were performed on a MyiQ-single-color real-time PCR detection system (Bio-Rad Laboratories), with initial denaturation for 3 min, 95° C., and 40 cycles of 15 s at 95.5° C., 15 s at 60° C., and 30 s at 72° C. Cycle threshold values (Ct values, i.e. the cycle numbers at which a threshold value of the fluorescence intensity was reached) were determined for each sample. The gene expression level for each sample was normalized using the expression of ppial (peptidylprolyl isomerase Ab (cyclophilin A)) for zebrafish samples, and 18S rRNA for human cells. The fold change per sample (compared to the respective control group) was calculated using the […]Ct method.
# […] Per sample, groups of 15 larvae were collected in TRIzol reagent (Thermo Fisher Scientific, Waltham, MA, USA), and total RNA was isolated using the miRNeasy mini kit (Qiagen, Hilden, Germany). For similar experiments in Hela cells, cells were seeded in 6 well plates, and after 6 h of chemical treatment, the cells were removed from the wells using TRIzol reagent, and total RNA was isolated using the miRNeasy mini kit according to the manufacturer's instructions. The RNA samples were DNAse-treated utilizing the DNA-free™ DNA Removal Kit (Thermo Fisher Scientific). The cDNA synthesis was performed using the iScript cDNA synthesis kit (Bio-Rad Laboratories, Hercules, CA, USA) using 1 μg of RNA per sample. For the PCR reactions, 10 μM of forward and 10 μM of reverse primer, 12.5 μl of iQ SYBR Green Supermix (Bio-Rad), and 2 μl of cDNA were added to the qPCR reaction mixture. […] The reactions were performed on a MyiQ-single-color real-time PCR detection system (Bio-Rad Laboratories) with initial denaturation for 3 min at 95° C. and 40 cycles of 15 s at 95.5° C., 15 s at 60° C., and 30 s at 72° C. Cycle threshold values (Ct values, i.e. the cycle numbers at which a threshold value of the fluorescence intensity was reached) were determined for each sample. The gene expression level for each sample was normalized using the expression of ppial (peptidylprolyl isomerase Ab (cyclophilin A)) for zebrafish samples, 18S rRNA for human cells. The fold change per sample (compared to the respective control group) was calculated using the ΔΔCt method.
# zebrafish larvae [1] = assay: whole-body glucose measurement of zebrafish larvae; conditions: for whole-body glucose level: Example 2, non-wounded; for whole-body glucose level / whole-body glucose level upon wounding: 5 dpf; for whole-body glucose level upon wounding: Example 2, wounded at 2 dpf; for whole body glucose level: 0-5 dpf, 10 μM beclomethasone, 50 μM Rg1 or combination
# Method: In each experiment, three biological replicates were used for each treatment group, and the colorimetric assay was performed using technical duplicates.
# Tail fin wounding were performed at 2 days post-fertilization (dpf). At 5 dpf, the larvae (15 per sample) were placed in egg water for 1 h and collected in an Eppendorf tube, washed in egg water (3 times for 10 min). Subsequently, 100 μL of ice-cold glucose buffer was added to each sample, and the larvae were homogenized using a BulletBlender® for 3 min at 8,000 rpm. The homogenates were then centrifuged at 4° C. for 8 min at 11,000 rpm and the supernatant was stored at −20° C. Whole-body glucose concentrations were determined using a Glucose Colorimetric Assay kit (Cayman Chemical, Ann Arbor, MI, USA), according to the manufacturer's instructions. In each experiment, three biological replicates were used for each treatment group, and the colorimetric assay was performed using technical duplicates.
# zebrafish larvae [2] = assay: whole-body cortisol measurement of zebrafish larvae (ELISA); conditions: for whole-body cortisol level: Example 2, non-wounded; for whole-body cortisol level / whole-body cortisol level upon wounding: 5 dpf; for whole-body cortisol level upon wounding: Example 2, wounded at 2 dpf; for whole body cortisol level: 0-4 dpf, 10 μM beclomethasone, 50 μM Rg1 or combination
# Method: Ethyl acetate was added to the homogenate. The homogenates were then centrifuged at 4° C. for 8 min at 11,000 rpm and the supernatant was collected and vaporized. A volume of 150 μl of 0.2% Bovine serum albumin (Sigma-Aldrich) dissolved in PBS was added to the samples and frozen. Whole-body cortisol levels of the zebrafish larvae were determined by ELISA (Demeditec Diagnostics GmbH, Kiel-Wellsee, Germany), following the manufacturer's instructions. In each experiment, three biological replicates were used for each treatment group, and the ELISA was performed using technical duplicates.
# Tail fin wounding were performed at 2 days post-fertilization (dpf). At 96hpf, the treatments were stopped, and larvae were incubated in egg water until 5 dpf to avoid cross-reactivity between the compounds and the cortisol antibody used in the ELISA. At dpf, the larvae were collected in an Eppendorf tube (30 larvae per sample), and 100 μl of ice-cold egg water was added. After the excess water had been taken out, the samples were glaciated in ethanol (EtOH)/dry-ice bath. Subsequently, the larvae were homogenized using a BulletBlender® for 3 min at 8,000 rpm. Ethyl acetate was added to the homogenate. The homogenates were then centrifuged at 4° C. for 8 min at 11,000 rpm, and the supernatant was collected and vaporized. A volume of 150 μl of 0.2% bovine serum albumin (Sigma-Aldrich) dissolved in PBS was added to the samples and frozen. Whole-body cortisol levels of the zebrafish larvae were determined using a Cortisol free in Saliva ELISA kit (Demeditec Diagnostics GmbH, Kiel-Wellsee, Germany), following the manufacturer's instructions. In each experiment, three biological replicates were used for each treatment group, and the ELISA was performed using technical duplicates.
# [3] = beclomethasone 0.1, 1, 5, 10, 15 μM without or with 50 μM Rg1
dose-response of whole-body glucose level (zebrafish larvae [1]; [3]),dose-response of whole-body cortisol level (zebrafish larvae [2]; [3]),Compound,nfkbiaa expression (nfkbiaa),whole-body glucose level (zebrafish larvae [1]),whole-body glucose level upon wounding (zebrafish larvae [1]),whole-body cortisol level (zebrafish larvae [2]),whole-body cortisol level upon wounding (zebrafish larvae [2]),"cortisol effect upon wounding in presence of Gba2 inhibitor MZ31 (zebrafish larvae [2]; Example 2, wounded, with MZ31)","nfkbiaa expression, short-term treatment (nfkbiaa)","nfkbiaa expression, long-term treatment (nfkbiaa)",whole body glucose level (zebrafish larvae [1]),whole body cortisol level (zebrafish larvae [2])
,,CC(C)=CCC[C@](C)(O)[C@H]1CC[C@]2(C)[C@@H]1[C@H](O)C[C@@H]1[C@@]3(C)CC[C@H](O)C(C)(C)[C@@H]3[C@@H](O[C@@H]3O[C@H](CO)[C@@H](O)[C@H](O)[C@H]3O)C[C@]12C [Rh1],did not increase the expression,did not show any side effects,still not show any effect on the glucose or cortisol level or on tissue regeneration,did not show any side effects,still not show any effect on the glucose or cortisol level or on tissue regeneration,,,,,
,,CC(C)=CCC[C@](C)(O[C@@H]1O[C@H](CO)[C@@H](O)[C@H](O)[C@H]1O)[C@H]1CC[C@]2(C)[C@@H]1[C@H](O)C[C@@H]1[C@@]3(C)CC[C@H](O)C(C)(C)[C@@H]3[C@@H](O)C[C@]12C [F1],did not increase the expression,did not show any side effects,did not affect the glucose level,did not show any side effects,minor effect on the cortisol level and on tissue regeneration,These latter effects were Gba2-dependent,,,,
,,"CC(C)=CCC[C@](C)(O[C@@H]1O[C@H](CO)[C@@H](O)[C@H](O)[C@H]1O)[C@H]1CC[C@]2(C)[C@@H]1[C@H](O)C[C@@H]1[C@@]3(C)CC[C@H](O)C(C)(C)[C@@H]3[C@@H](O[C@@H]3O[C@H](CO)[C@@H](O)[C@H](O)[C@H]3O)C[C@]12C [Rg1, (3β,6α, 12β)-3,12-Dihydroxydammar-24-ene-6,20-diyl bis-β-D-glucopyranoside]",did not increase the expression,did not show any side effects,still not show any effect on the glucose or cortisol level or on tissue regeneration,did not show any side effects,still not show any effect on the glucose or cortisol level or on tissue regeneration,,did not affect the expression of the genes,did not affect the expression of the genes,did not affect the whole-body glucose and cortisol concentrations,did not affect the whole-body glucose and cortisol concentrations
dose-dependent effect,dose-dependent effect,"C[C@H]1C[C@H]2[C@@H]3CCC4=CC(=O)C=C[C@]4(C)[C@@]3(Cl)[C@@H](O)C[C@]2(C)[C@@]1(O)C(=O)CO [beclomethasone, reference compound]",,increase in the glucose level,,decrease in cortisol level,,,upregulated the expression,this upregulation of pck1 and nfkbiaa was significantly reduced after long-term treatment,elevated whole body glucose,reduced whole body cortisol levels
,,"CC(C)=CCC[C@](C)(O)[C@H]1CC[C@]2(C)[C@@H]1[C@H](O)C[C@@H]1[C@@]3(C)CC[C@H](O)C(C)(C)[C@@H]3[C@@H](O)C[C@]12C [PPT, Protopanaxatriol]",did not increase the expression,did not affect the glucose level,,did decrease the cortisol concentration,,,,,,
